Test results from BindingDB's records for doi:10.1021/acs.jmedchem.6b00993 (Purdue University, 2016).

These molecules were tested against Serine/threonine-protein phosphatase 5 (Homo sapiens) (UniProt P53041) (assay: Inhibition of His-tagged PP5 (unknown origin) expressed in Escherichia coli BL21 cells using para-nitrophenyl phosphate as substrate incubated for 5 to 10 mins by microplate reader based spectrophotometric analysis).
Sequence of Serine/threonine-protein phosphatase 5 (Homo sapiens) (P53041 whole entry, looked up): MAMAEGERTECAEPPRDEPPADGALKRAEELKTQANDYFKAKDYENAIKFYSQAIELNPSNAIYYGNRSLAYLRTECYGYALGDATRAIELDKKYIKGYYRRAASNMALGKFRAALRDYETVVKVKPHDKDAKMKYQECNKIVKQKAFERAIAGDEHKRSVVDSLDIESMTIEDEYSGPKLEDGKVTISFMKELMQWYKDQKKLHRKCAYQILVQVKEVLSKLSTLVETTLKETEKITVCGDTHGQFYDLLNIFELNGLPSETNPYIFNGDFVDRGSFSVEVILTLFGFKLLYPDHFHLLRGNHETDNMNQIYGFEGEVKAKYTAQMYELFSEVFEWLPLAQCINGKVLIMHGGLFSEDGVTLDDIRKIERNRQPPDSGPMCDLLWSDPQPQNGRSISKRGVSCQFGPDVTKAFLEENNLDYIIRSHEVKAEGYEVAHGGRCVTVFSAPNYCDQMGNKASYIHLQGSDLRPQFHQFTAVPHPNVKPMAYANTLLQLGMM

IC50, > 200 µM:
O=C(Nc1ccc2nc(C(F)(F)F)[nH]c2c1)C(c1ccccc1)S(=O)(=O)O (centres undefined), O=C(Nc1cnc2ccccc2c1)C(c1ccccc1)S(=O)(=O)O (centres undefined), O=C(Nc1nc2ccccc2s1)C(c1ccccc1)S(=O)(=O)O (centres undefined), O=C(Nc1ccc(N2CCOCC2)cc1)C(c1ccccc1)S(=O)(=O)O (centres undefined)
